From US20240368150A1 (Hoffmann-La Roche Inc., priority 2021, published 2024) come the findings set out here.

Read-outs that look alike come from different tables or passages of the source. A value given as a limit tells only on which side of the number the result lay.

Experiment [1] has as its system primary human T-cells. Nature of the experiment: Proliferation assay after 5 days (CellTiter-Glo, CD3 stimulation; PBS counter screen). The following applies: CD3 stimulation; for Emax / Emax proliferation (% activation): 5 days, normalized to reference compound A1 as stimulator control = 100%, DMSO neutral control; for Emax: read-out: Emax proliferation (% activation); for EC50: primary human T-cells, CellTiter-Glo after 5 days, EC50 of fitted sigmoidal curve, read-out: Tcell Proliferation CD3 EC50. Type of experiment: cell-based. In outline: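 Proliferation is measured 5 days post-treatment as ATP-dependent luminescence. Flags mark compounds that activated unstimulated cells or harmed viability.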
(In general: In ATP-based viability assays light output follows the ATP content of the culture.)

The subject of experiment [2] is primary human T-cells.

Consider `N[C@H]1CS(=O)(=O)c2ccc(-c3nnc(C(F)(F)C(F)(F)F)o3)cc2N(Cc2ccc(OC(F)(F)F)cc2)C1=O` [Example 415, (3R)-3-amino-1,1-dioxo-7-[5-(1,1,2,2,2-pentafluoroethyl)-1,3,4-oxadiazol-2-yl]-5-[[4-(trifluoromethoxy)phenyl]methyl]-2,3-dihydro-1λ^6,5-benzothiazepin-4-one], for which, in the experiment with primary human T-cells [1] (Homo sapiens, T-cell, 120 h), the Emax stood at 64% and the EC50 turned out to be 6230 nM. The molecule further returned an EC50 with primary human T-cells [2] of 443 nM.
Consider `CC(C)(CN1CCCCC1)c1nnc(-c2cc3c(cc2F)S(=O)(=O)C[C@H](N)C(=O)N3Cc2ccc(Cl)cc2)o1` [Example 141, (3R)-3-amino-5-[(4-chlorophenyl)methyl]-7-[5-[1,1-dimethyl-2-(1-piperidyl)ethyl]-1,3,4-oxadiazol-2-yl]-8-fluoro-1,1-dioxo-2,3-dihydro-1λ^6,5-benzothiazepin-4-one], for which the Emax with primary human T-cells [1] (Homo sapiens, T-cell, 120 h) came out at 91%. Besides, the EC50 in the experiment on primary human T-cells [1] (Homo sapiens, T-cell, 120 h) was found to be 768 nM; in the experiment on primary human T-cells [2] it was 255 nM.
On to `COC(F)(c1nc(-c2cc3c(cc2F)[S+]([O-])C[C@H](N)C(=O)N3Cc2ccc(Cl)cc2)no1)C(F)(F)F` (single isomer, unassigned; epimer b) [Example 339], for which, in the experiment on primary human T-cells [1], the “Emax proliferation (% activation)” value is reported as 141 % activation. Moreover, the EC50 was found to be 421 nM in the experiment on primary human T-cells [1] and 1300 nM in the experiment on primary human T-cells [2].
For the molecule `COC(=O)N1CCC(c2nnc(-c3cc4c(cc3F)S(=O)(=O)C[C@H](N)C(=O)N4Cc3ccc(Cl)cc3)o2)CC1` [Example 167, methyl 4-[5-[(3R)-3-amino-5-[(4-chlorophenyl)methyl]-8-fluoro-1,1,4-trioxo-2,3-dihydro-1λ^6,5-benzothiazepin-7-yl]-1,3,4-oxadiazol-2-yl]piperidine-1-carboxylate], in the experiment on primary human T-cells [1] (Homo sapiens, T-cell, 120 h), the Emax stood at 100% and the EC50 was 208 nM. In the experiment on primary human T-cells [2], this molecule yielded an EC50 of 122 nM.
Consider `COc1ccc(CN2C(=O)[C@@H](N)CS(=O)(=O)c3cc(F)c(-c4nnc(C(C)(C)C)o4)cc32)cc1` [Example 230], for which, in the experiment with primary human T-cells [1] (Homo sapiens, T-cell, 120 h), the Emax came to 119% and the EC50 was determined as 89.3 nM. In the experiment on primary human T-cells [2], this molecule returned an EC50 of 105 nM.
For `CCC(=O)N[C@H]1CS(=O)(=O)c2cc(F)c(-c3nnc(C(C)(C)C)o3)cc2N(Cc2ccc(Cl)cc2)C1=O` [Example 259, N-[(3R)-7-(5-tert-butyl-1,3,4-oxadiazol-2-yl)-5-[(4-chlorophenyl)methyl]-8-fluoro-1,1,4-trioxo-2,3-dihydro-1λ^6,5-benzothiazepin-3-yl]propanamide], the Emax in the experiment with primary human T-cells [1] (Homo sapiens, T-cell, 120 h) came out at 159%. Besides, the EC50 with primary human T-cells [1] (Homo sapiens, T-cell, 120 h) was 345 nM; in the experiment with primary human T-cells [2] it was 2100 nM.
Turning to `CC(C)(C)c1cn(-c2cc3c(cc2F)S(=O)(=O)C[C@H](N)C(=O)N3Cc2ccc(Cl)cc2)cn1` [Example 527], the “Emax proliferation (% activation)” value with primary human T-cells [1] is recorded as 69 % activation. For the same molecule, the EC50 with primary human T-cells [1] was 1280 nM; in the experiment on primary human T-cells [2], 292 nM.
In the case of `Cn1nnc(-c2cc3c(cc2F)S(=O)(=O)C[C@H](N)C(=O)N3Cc2ccc(Cl)cc2)n1` [Example 16, (3R)-3-amino-5-[(4-chlorophenyl)methyl]-8-fluoro-7-(2-methyltetrazol-5-yl)-1,1-dioxo-2,3-dihydro-1λ^6,5-benzothiazepin-4-one], in the experiment with primary human T-cells [1] (Homo sapiens, T-cell, 120 h), the Emax was determined as 65% and the EC50 is 3660 nM. Further, in the experiment with primary human T-cells [2], the EC50 came to 2830 nM.
On the same counts, the results for `CC(C)(C)c1nnc(-c2ccc3c(c2)N(Cc2ccc(OC4CCOCC4)cc2)C(=O)[C@@H](N)CS3(=O)=O)o1` [Example 436, (3R)-3-amino-7-(5-tert-butyl-1,3,4-oxadiazol-2-yl)-1,1-dioxo-5-[(4-tetrahydropyran-4-yloxyphenyl)methyl]-2,3-dihydro-1λ^6,5-benzothiazepin-4-one] are 66%, 940 nM and 4230 nM.
For `CC(C)(CC(F)(F)F)Nc1nnc(-c2cc3c(cc2F)S(=O)(=O)C[C@H](N)C(=O)N3Cc2ccc(Cl)cc2)o1` [Example 494, (3R)-3-amino-5-[(4-chlorophenyl)methyl]-8-fluoro-1,1-dioxo-7-[5-[(3,3,3-trifluoro-1,1-dimethyl-propyl)amino]-1,3,4-oxadiazol-2-yl]-2,3-dihydro-1λ^6.5-benzothiazepin-4-one], in the experiment with primary human T-cells [1] (Homo sapiens, T-cell, 120 h), the Emax is 118% and the EC50 came out at 464 nM. Besides, the EC50 in the experiment with primary human T-cells [2] was found to be 1200 nM.
For `CC(C)(CN)c1nnc(-c2cc3c(cc2F)S(=O)(=O)C[C@H](N)C(=O)N3Cc2ccc(Cl)cc2)o1` [Example 111, (3R)-3-amino-7-[5-(2-amino-1,1-dimethyl-ethyl)-1,3,4-oxadiazol-2-yl]-5-[(4-chlorophenyl)methyl]-8-fluoro-1,1-dioxo-2,3-dihydro-1λ^6,5-benzothiazepin-4-one], in the experiment on primary human T-cells [1] (Homo sapiens, T-cell, 120 h), the Emax was found to be 97% and the EC50 came out at 556 nM. In the experiment on primary human T-cells [2], this molecule had an EC50 of 3130 nM.
For the molecule `N[C@H]1CS(=O)(=O)c2ccc(-c3nc(CC(F)(F)F)no3)nc2N(Cc2ccc(Cl)cc2)C1=O` [Example 39, (3R)-3-amino-5-[(4-chlorophenyl)methyl]-1,1-dioxo-7-[3-(2,2,2-trifluoroethyl)-1,2,4-oxadiazol-5-yl]-2,3-dihydropyrido[3,2-b][1,4]thiazepin-4-one], in the experiment with primary human T-cells [1] (Homo sapiens, T-cell, 120 h), the Emax is 161% and the EC50 was 486 nM. This molecule returned an EC50 in the experiment on primary human T-cells [2] of 842 nM.
With `CS(=O)(=O)N1CCCC(n2nnc(-c3cc4c(cc3F)S(=O)(=O)C[C@H](N)C(=O)N4Cc3ccc(Cl)cc3)n2)C1` (stereo partly drawn) [Example 18, (3R)-3-amino-5-[(4-chlorophenyl)methyl]-8-fluoro-7-[2-(1-methylsulfonyl-3-piperidyl)tetrazol-5-yl]-1,1-dioxo-2,3-dihydro-1λ^6,5-benzothiazepin-4-one], in the experiment on primary human T-cells [1] (Homo sapiens, T-cell, 120 h), the Emax is 136% and the EC50 is 296 nM. In the experiment with primary human T-cells [2], this molecule gave an EC50 of 910 nM.
On the same counts, the results for `CC(C)(c1nnc(-c2cc3c(cc2F)S(=O)(=O)C[C@H](N)C(=O)N3Cc2ccc(Cl)cc2)o1)N1CCCC1` [Example 128, (3R)-3-amino-5-[(4-chlorophenyl)methyl]-8-fluoro-7-[5-(1-methyl-1-pyrrolidin-1-yl-ethyl)-1,3,4-oxadiazol-2-yl]-1,1-dioxo-2,3-dihydro-1λ^6,5-benzothiazepin-4-one] are 99%, 534 nM and 1240 nM.
In the case of `C[C@@H]1[C@H](N)C(=O)N(Cc2ccc(Cl)cc2)c2cc(-c3nnc(C(C)(C)C)o3)c(F)cc2S1(=O)=O` [Example 190, (2R,3R)-3-amino-7-(5-tert-butyl-1,3,4-oxadiazol-2-yl)-5-[(4-chlorophenyl)methyl]-8-fluoro-2-methyl-1,1-dioxo-2,3-dihydro-1λ^6,5-benzothiazepin-4-one], in the experiment with primary human T-cells [1] (Homo sapiens, T-cell, 120 h), the Emax was 114% and the EC50 was found to be 1160 nM. In the experiment with primary human T-cells [2], this molecule came in with an EC50 of 1640 nM.
On to `CS(=O)(=O)N1CC(c2nnc(-c3cc4c(cc3F)S(=O)(=O)C[C@H](N)C(=O)N4Cc3ccc(Cl)cc3)o2)CC(F)(F)C1` (stereo partly drawn) [Example 164, (3R)-3-amino-5-[(4-chlorophenyl)methyl]-7-[5-(5,5-difluoro-1-methylsulfonyl-3-piperidyl)-1,3,4-oxadiazol-2-yl]-8-fluoro-1,1-dioxo-2,3-dihydro-1λ^6,5-benzothiazepin-4-one], for which, in the experiment with primary human T-cells [1] (Homo sapiens, T-cell, 120 h), the Emax was determined as 82% and the EC50 was 292 nM. This molecule had an EC50 with primary human T-cells [2] of 708 nM.
For the molecule `CC(C)(C)c1nc(-c2cc3c(cc2F)S(=N)(=O)C[C@H](N)C(=O)N3Cc2ccc(Cl)cc2)no1` (stereo partly drawn) [Example 516, (3R)-3-amino-7-(5-tert-butyl-1,2,4-oxadiazol-3-yl)-5-[(4-chlorophenyl)methyl]-8-fluoro-1-imino-1-oxo-2,3-dihydro-1λ^6,5-benzothiazepin-4-one], in the experiment with primary human T-cells [1] (Homo sapiens, T-cell, 120 h), the Emax amounted to 51% and the EC50 is 8330 nM. For the same molecule, the EC50 with primary human T-cells [2] came out at 2740 nM.
For `N[C@H]1CS(=O)(=O)c2ccc(-c3nnc(C4(N)CCOCC4)o3)cc2N(Cc2ccc(OC(F)(F)F)cc2)C1=O` [Example 418, (3R)-3-amino-7-[5-(4-aminotetrahydropyran-4-yl)-1,3,4-oxadiazol-2-yl]-1,1-dioxo-5-[[4-(trifluoromethoxy)phenyl]methyl]-2,3-dihydro-1λ^6,5-benzothiazepin-4-one], in the experiment with primary human T-cells [1] (Homo sapiens, T-cell, 120 h), the Emax stood at 52% and the EC50 turned out to be 9500 nM. In the experiment with primary human T-cells [2], this molecule yielded an EC50 of 5740 nM.
In the case of `Cc1cccc(-c2nnc(-c3cc4c(cc3F)S(=O)(=O)C[C@H](N)C(=O)N4Cc3ccc(Cl)cc3)o2)c1` [Example 107, (3R)-3-amino-5-[(4-chlorophenyl)methyl]-8-fluoro-7-[5-(m-tolyl)-1,3,4-oxadiazol-2-yl]-1,1-dioxo-2,3-dihydro-1λ^6,5-benzothiazepin-4-one], in the experiment on primary human T-cells [1] (Homo sapiens, T-cell, 120 h), the Emax was 134% and the EC50 worked out at 955 nM. This molecule displayed an EC50 with primary human T-cells [2] of 188 nM.
For the molecule `CN1CCN(CC(C)(C)c2nnc(-c3cc4c(cc3F)S(=O)(=O)C[C@H](N)C(=O)N4Cc3ccc(Cl)cc3)o2)CC1` [Example 148, (3R)-3-amino-5-[(4-chlorophenyl)methyl]-7-[5-[1,1-dimethyl-2-(4-methylpiperazin-1-yl)ethyl]-1,3,4-oxadiazol-2-yl]-8-fluoro-1,1-dioxo-2,3-dihydro-1λ^6,5-benzothiazepin-4-one], in the experiment with primary human T-cells [1] (Homo sapiens, T-cell, 120 h), the Emax was found to be 48% and the EC50 was more than 10000 nM. In the experiment with primary human T-cells [2], the EC50 was 988 nM.
On the same counts, the results for `CC(C)(C)NC(=O)c1nc(-c2ccc3c(c2)N(Cc2ccc(OC(F)(F)F)cc2)C(=O)[C@@H](N)CS3(=O)=O)no1` [Example 355, 3-[(3R)-3-amino-1,1,4-trioxo-5-[[4-(trifluoromethoxy)phenyl]methyl]-2,3-dihydro-1λ^6,5-benzothiazepin-7-yl]-N-tert-butyl-1,2,4-oxadiazole-5-carboxamide] are 65%, 1620 nM and 6050 nM.
